The molecules below were run against T1, human GnRH receptor (Homo sapiens, UniProt P30968) (assay: Peptide competition radioligand binding displacement assay, human GnRH receptor membranes). Conditions: one or more of the peptide competition human receptor binding assays.
T1 construct: expressed in transfected cells; host or cells: RBL cells, stably transfected (in general)
T1 sequence (P30968 1-328): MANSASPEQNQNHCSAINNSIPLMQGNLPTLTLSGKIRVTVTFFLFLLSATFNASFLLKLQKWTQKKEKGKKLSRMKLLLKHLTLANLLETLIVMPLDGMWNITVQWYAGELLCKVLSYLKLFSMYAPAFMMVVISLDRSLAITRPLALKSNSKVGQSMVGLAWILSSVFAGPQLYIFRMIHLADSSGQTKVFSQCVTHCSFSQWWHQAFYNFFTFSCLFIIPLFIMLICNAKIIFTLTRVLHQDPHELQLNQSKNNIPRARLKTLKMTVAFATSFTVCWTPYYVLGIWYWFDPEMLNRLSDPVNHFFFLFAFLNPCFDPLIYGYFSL
Outline: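 Membranes for radioligand binding were prepared from RBL cells stably expressing human GnRH receptor, which were lysed by nitrogen cavitation at 900 psi, 4° C. Membranes from HEK293 cells stably transfected with human receptor were held in 10 mM HEPES pH 7.5, 150 mM NaCl, 0.1% BSA. Transiently transfected COS-7 cells were used for other species.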

Ki, ≤ 100 nM:
COc1cccc(C)c1N(C)C(=O)c1ccc(Cl)c(-c2cnc(Cl)cc2C)c1 [2-31, 4-chloro-3-(6-chloro-4-methyl-pyridin-3-yl)-N-(2-methoxy-6-methyl-phenyl)-N-methyl-benzamide]
Cc1cccc(C)c1N(C)C(=O)c1cc(-c2nc3ccccc3cc2C#N)c(Cl)cc1OCCCC(=O)O [22-6]
COc1cccc(N(C)C(=O)c2cc(-c3cnc(C(F)(F)F)cc3C#N)c(Cl)cc2OCCCC(=O)O)n1 [34-19]
CCN(C(=O)c1ccc(Cl)c(-c2ncc(Cl)cc2Cl)c1)c1ccccc1OC [17-2]
COc1ccccc1N(C)C(=O)c1ccc(Cl)c(-c2cnc(C(F)(F)F)cc2C)c1 [2-12]
CSc1ccccc1N(C)C(=O)c1ccc(Cl)c(-c2cnc(C(F)(F)F)cc2C#N)c1 [2-81]
Cc1cccc(C)c1N(C)C(=O)c1ccc(Cl)c(-c2ncc(Cl)cc2Cl)c1 [19-8]
Cc1cc(C(F)(F)F)ncc1-c1cc(C(=O)N(C)c2c(C)cccc2OCCC(=O)O)ccc1Cl [11-5]
CN(CC1CC1)C(=O)c1cc(-c2cnc(C(F)(F)F)cc2C#N)c(Cl)cc1OCCCC(=O)O [34-25]
COc1ccccc1N(C)C(=O)c1cc(-c2cnc(C(F)(F)F)cc2C#N)c(Cl)cc1OCC(N)CO (stereo not shown) [42-18]
COC(=O)c1ccccc1N(C)C(=O)c1ccc(Cl)c(-c2ncc(Cl)cc2Cl)c1 [19-6]
Cc1cccc(OCCCC(=O)O)c1N(C)C(=O)c1ccc(Cl)c(-c2nc3ccccc3cc2C#N)c1 [5-4]
COc1ccc(OC)c(N(C)C(=O)c2cc(-c3cnc(C(F)(F)F)cc3C#N)c(Cl)cc2OCCCC(=O)O)c1 [34-13]
Cc1cccc(N(C)C(=O)c2ccc(Cl)c(-n3c(C)cc(C(F)(F)F)nc3=O)c2)c1C [30-14]
CN(C(=O)c1ccc(Cl)c(-c2ncc(Cl)cc2Cl)c1)c1ccccc1O [19-1, 4-Chloro-3-(3,5-dichloro-pyridin-2-yl)-N-(2-hydroxy-phenyl)-N-methyl-benzamide]
CN(C(=O)c1cc(-c2cnc(C(F)(F)F)cc2C#N)c(Cl)cc1OCCCC(=O)O)c1ccccc1 [34-8]
COc1ccccc1N(C)C(=O)c1ccc(Cl)c(-c2c(Cl)cc(Cl)c[n+]2[O-])c1 [27-1, 4-Chloro-3-(3,5-dichloro-1-oxy-pyridin-2-yl)-N-(2-methoxy-phenyl)-N-methyl-benzamide]
COc1ccccc1N(C)C(=O)c1cc(-c2cnc(C(F)(F)F)cc2C#N)c(Cl)cc1OCCCN1CCC[C@H]1C(=O)O [49-1, (S)-1-(3-{5-Chloro-4-(4-cyano-6-trifluoromethyl-pyridin-3-yl)-2-[(2-methoxy-phenyl)-methyl-carbamoyl]-phenoxy}-propyl)-pyrrolidine-2-carboxylic acid]
COc1ccccc1N(C)C(=O)c1cc(-c2cnc(C(F)(F)F)cc2C#N)c(Cl)cc1OCCCNC(C)=O [47-3]
Cc1cc(Cl)c(-c2cc(C(=O)N(C)c3cccc(C)c3C)ccc2Cl)cn1 [2-22]
COc1ccccc1N(C)C(=O)c1ccc(Cl)c(-c2cnc(C#N)cc2C)c1 [2-10, 4-chloro-3-(6-cyano-4-methyl-pyridin-3-yl)-N-(2-methoxy-phenyl)-N-methyl-benzamide]
CN(C(=O)c1ccc(Cl)c(-c2cnc(C(F)(F)F)cc2C#N)c1)c1ccccc1OCCc1nnn[nH]1 [45-1, 4-Chloro-3-(4-cyano-6-trifluoromethyl-pyridin-3-yl)-N-methyl-N-{2-[2-(1H-tetrazol-5-yl)-ethoxy]-phenyl}-benzamide]
Cc1cnc(-c2cc(C(=O)N(C)c3cccc(C)c3C)ccc2Cl)c(C)c1 [2-68]
Cc1cc(Cl)ncc1-c1cc(C(=O)N(C)c2ccccc2CCCC(=O)O)ccc1Cl [14-1, 4-(2-{[4-Chloro-3-(6-chloro-4-methyl-pyridin-3-yl)-benzoyl]-methyl-amino}-phenyl)-butyric acid]
COc1cccc(C)c1N(C)C(=O)c1cc(-c2cnc(C(F)(F)F)cc2C#N)c(Cl)cc1OCCCN [23-1, 2-(3-Amino-propoxy)-4-chloro-5-(4-cyano-6-trifluoromethyl-pyridin-3-yl)-N-(2-methoxy-6-methyl-phenyl)-N-methyl-benzamide]
CN(C(=O)c1ccc(Cl)c(-c2cnc(C(F)(F)F)cc2C#N)c1)c1ccccc1OCCC(=O)OCOC(=O)C(C)(C)C [36-1, 2,2-Dimethyl-propionic acid 3-(2-{[4-chloro-3-(4-cyano-6-trifluoromethyl-pyridin-3-yl)-benzoyl]-methyl-amino}-phenoxy)-propionyloxymethyl ester]
COc1ccc(C)cc1N(C)C(=O)c1cc(-c2cnc(C(F)(F)F)cc2C#N)c(Cl)cc1OCCCC(=O)O [34-12]
Cc1cccc(O)c1N(C)C(=O)c1ccc(Cl)c(-c2cnc(C(F)(F)F)cc2C#N)c1 [8-7]
Cc1cc(Cl)ncc1-c1cc(C(=O)N(C)c2ccccc2OCC(=O)O)ccc1Cl [4-1, (2-{[4-Chloro-3-(6-chloro-4-methyl-pyridin-3-yl)-benzoyl]-methyl-amino}-phenoxy)-acetic acid]
COc1cc(Cl)ccc1N(C)C(=O)c1cc(-c2cnc(C(F)(F)F)cc2C#N)c(Cl)cc1OCCCC(=O)O [34-2]
COC(=O)CCCOc1ccccc1N(C)C(=O)c1ccc(Cl)c(-c2cnc(C#N)cc2C)c1 [3-8]
COc1cccc(C)c1N(C)C(=O)c1cc(-c2cnc(C(F)(F)F)cc2C#N)c(Cl)cc1OCC(=O)O [22-9]
COc1ccccc1N(C)C(=O)c1cc(-c2cnc(C(F)(F)F)cc2C#N)c(Cl)cc1OCCN [42-16]
COc1c(Cl)cccc1N(C)C(=O)c1ccc(Cl)c(-c2ncc(Cl)cc2Cl)c1 [19-7]
Cc1cc(Cl)ncc1-c1cc(C(=O)N(C)c2ccccc2OCC(N)=O)ccc1Cl [6-1, N-(2-Carbamoylmethoxy-phenyl)-4-chloro-3-(6-chloro-4-methyl-pyridin-3-yl)-N-methyl-benzamide]
COc1ccccc1N(C)C(=O)c1ccc(Cl)c(-c2ccc(Cl)cc2Cl)c1 [2-54]
Cc1cccnc1N(C)C(=O)c1cc(-c2cnc(C(F)(F)F)cc2C#N)c(Cl)cc1OCCCC(=O)O [34-20]
Cc1cc(Br)ncc1-c1cc(C(=O)N(C)c2ccccc2F)ccc1Cl [2-39]
COc1ccccc1N(C)C(=O)c1cc(-c2cnc(C(F)(F)F)cc2C#N)c(Cl)cc1OCCCc1ccncc1 [42-9]
COc1cccc(F)c1N(C)C(=O)c1cc(-c2cnc(C(F)(F)F)cc2C#N)c(Cl)cc1OCCCC(=O)O [34-26]
COc1ccccc1N(C)C(=O)c1cc(-c2cnc(C(F)(F)F)cc2C#N)c(Cl)cc1OCCCn1cccc1 [42-10]
CN(C)CCOc1ccccc1N(C)C(=O)c1ccc(Cl)c(-c2cnc(Cl)cc2Cl)c1 [7-1, 4-Chloro-3-(4,6-dichloro-pyridin-3-yl)-N-[2-(2-dimethylamino-ethoxy)-phenyl]-N-methyl-benzamide]
COc1cc(F)ccc1N(C)C(=O)c1cc(-c2cnc(C(F)(F)F)cc2C#N)c(Cl)cc1OCCCC(=O)O [34-4]
Cc1cc(Cl)cnc1-c1cc(C(=O)N(C)c2ccccc2F)ccc1Cl [2-62]
Cc1c(Cl)cccc1N(C)C(=O)c1ccc(Cl)c(-n2c(C)cc(C(F)(F)F)nc2=O)c1 [30-12]
Cc1cccc(C)c1N(C)C(=O)c1ccc(Cl)c(-n2c(C)cc(C(F)(F)F)nc2=O)c1 [30-11]
Cc1cnc(-c2cc(C(=O)N(C)c3c(C)cccc3C)ccc2Cl)c(Cl)c1 [2-64]
Cc1cc(C#N)ncc1-c1cc(C(=O)N(C)c2ccccc2OCCCC(=O)O)ccc1Cl [5-1, 4-(2-{[4-Chloro-3-(6-cyano-4-methyl-pyridin-3-yl)-benzoyl]-methyl-amino}-phenoxy)-butyric acid]
CN(C(=O)c1ccc(Cl)c(-c2cnc(C(F)(F)F)cc2C#N)c1)c1ccccc1OCCOc1ccccn1 [51-1, 4-Chloro-3-(4-cyano-6-trifluoromethyl-pyridin-3-yl)-N-methyl-N-{2-[2-(pyridin-2-yloxy)-ethoxy]-phenyl}-benzamide]
COc1cccc(C)c1N(C)C(=O)c1ccc(Cl)c(-c2cnc(SC)cc2C)c1 [26-1, 4-Chloro-N-(2-methoxy-6-methyl-phenyl)-N-methyl-3-(4-methyl-6-methyl-sulfanylpyridin-3-yl)-benzamide]
COc1ccccc1N(C)C(=O)c1ccc(Cl)c(-c2nc(C)c(Cl)cc2Cl)c1 [2-80]
Cc1cccc(N(C)C(=O)c2ccc(Cl)c(-c3ncc(Cl)cc3Cl)c2)c1C [19-10]

Reference: US8481738B2, “Gonadotropin-releasing hormone receptor antagonists and methods relating thereto” (Neurocrine Biosciences, Inc., priority 2007, dated 2013)
